Species on record: Rattus norvegicus
Assay: DrugMatrix - Regimen: Daily Repeat
Type: toxicity, organism-based, Sprague-Dawley
Design: regimen Daily Repeat, gender Male, age 6-8 weeks
Details: in vivo, po, route oral GAVAGE, vehicle .5 % CMC; for ALANINE AMINOTRANSFERASE / ALBUMIN / ALKALINE PHOSPHATASE / ASPARTATE AMINOTRANSFERASE / BLOOD UREA NITROGEN / CHLORIDE / CHOLESTEROL / CREATINE PHOSPHOKINASE / CREATININE / GLUCOSE / LACTATE DEHYDROGENASE / LIPASE / PHOSPHORUS / POTASSIUM / SODIUM / TOTAL BILIRUBIN / TOTAL PROTEIN / URIC ACID: tissue Plasma
[1] = 80 mg/kg, 2184 h, tissue Blood, dose level Low, time 91 day
[2] = 80 mg/kg, 2184 h, dose level Low, time 91 day
[3] = 80 mg/kg, […], tissue Blood, dose level Low, time 28 day
[4] = 80 mg/kg, […], dose level Low, time 28 day
[5] = 150 mg/kg, 72 h, tissue Blood, dose level M1, time 3 day
[6] = 150 mg/kg, 72 h, dose level M1, time 3 day
[7] = 150 mg/kg, 120 h, tissue Blood, dose level M1, time 5 day
[8] = 150 mg/kg, 120 h, dose level M1, time 5 day
[9] = 1500 mg/kg, 72 h, tissue Blood, dose level High, time 3 day
[10] = 1500 mg/kg, 72 h, dose level High, time 3 day
[11] = 1500 mg/kg, 120 h, tissue Blood, dose level High, time 5 day
[12] = 1500 mg/kg, 120 h, dose level High, time 5 day

## O=c1cc(-c2ccccc2)oc2ccc3ccccc3c12 [BETA-NAPHTHOFLAVONE]
[1]
  EOSINOPHIL: 0.76%
  ERYTHROCYTE COUNT: 8.94 x10E6/uL
  HEMATOCRIT: 47.57%
  HEMOGLOBIN: 15.76 G/DL
  LEUKOCYTE COUNT: 15.13 x10E3/uL
  LYMPHOCYTE: 74.26%
  MEAN CORPUSCULAR HEMOGLOBIN: 17.63 pg
  MEAN CORPUSCULAR HEMOGLOBIN CONCENTRATION: 33.13 G/DL
  MEAN CORPUSCULAR VOLUME: 53.23 fL
  MONOCYTE: 1.9%
  NEUTROPHIL: 20.01%
  PLATELET COUNT: 1247.3 x10E3/uL
[2]
  ALANINE AMINOTRANSFERASE: 27.5 u/L
  ALBUMIN: 3.68 G/DL
  ALKALINE PHOSPHATASE: 82.2 u/L
  ASPARTATE AMINOTRANSFERASE: 64.9 u/L
  BLOOD UREA NITROGEN: 15.3 mg/dL
  CHLORIDE: 104 MEQ/L
  CHOLESTEROL: 68.4 mg/dL
  CREATINE PHOSPHOKINASE: 81.3 u/L
  CREATININE: 0.51 mg/dL
  GLUCOSE: 148 mg/dL
  LACTATE DEHYDROGENASE: 43.4 u/L
  LIPASE: 20.6 u/L
  PHOSPHORUS: 8.24 mg/dL
  POTASSIUM: 6.5 MEQ/L
  SODIUM: 150 MEQ/L
  TOTAL BILIRUBIN: 0.21 mg/dL
  TOTAL PROTEIN: 7.08 G/DL
  URIC ACID: 0.93 mg/dL
[3]
  ABSOLUTE BASOPHIL: 190 cells/µL
  ABSOLUTE EOSINOPHIL: 60 cells/µL
  ABSOLUTE LYMPHOCYTE: 13200 cells/µL
  ABSOLUTE MONOCYTE: 300 cells/µL
  ABSOLUTE SEGMENTED NEUTROPHIL: 1910 cells/µL
  BASOPHIL: 1.18%
  EOSINOPHIL: 0.36%
  ERYTHROCYTE COUNT: 8.59 x10E6/uL
  HEMATOCRIT: 48.64%
  HEMOGLOBIN: 16.08 G/DL
  LEUKOCYTE COUNT: 15.78 x10E3/uL
  LYMPHOCYTE: 83.98%
  MEAN CORPUSCULAR HEMOGLOBIN: 18.78 pg
  MEAN CORPUSCULAR HEMOGLOBIN CONCENTRATION: 33.1 G/DL
  MEAN CORPUSCULAR VOLUME: 56.7 fL
  MONOCYTE: 1.92%
  NEUTROPHIL: 12%
  PLATELET COUNT: 1252.8 x10E3/uL
[4]
  ALANINE AMINOTRANSFERASE: 30.4 u/L
  ALBUMIN: 3.64 G/DL
  ALKALINE PHOSPHATASE: 126 u/L
  ASPARTATE AMINOTRANSFERASE: 71.4 u/L
  BLOOD UREA NITROGEN: 13.4 mg/dL
  CHLORIDE: 103.4 MEQ/L
  CHOLESTEROL: 69.8 mg/dL
  CREATINE PHOSPHOKINASE: 116.2 u/L
  CREATININE: 0.48 mg/dL
  GLUCOSE: 156.6 mg/dL
  LACTATE DEHYDROGENASE: 80.8 u/L
  LIPASE: 13 u/L
  PHOSPHORUS: 9.74 mg/dL
  POTASSIUM: 6.34 MEQ/L
  SODIUM: 149.8 MEQ/L
  TOTAL BILIRUBIN: 0.24 mg/dL
  TOTAL PROTEIN: 6.58 G/DL
  URIC ACID: 0.58 mg/dL
[5]
  BASOPHIL: 0.43%
  EOSINOPHIL: 0.3%
  ERYTHROCYTE COUNT: 6.69 x10E6/uL
  HEMATOCRIT: 42.2%
  HEMOGLOBIN: 13.2 G/DL
  LEUKOCYTE COUNT: 11.3 x10E3/uL
  LYMPHOCYTE: 85.87%
  MEAN CORPUSCULAR HEMOGLOBIN: 19.73 pg
  MEAN CORPUSCULAR HEMOGLOBIN CONCENTRATION: 31.23 G/DL
  MEAN CORPUSCULAR VOLUME: 63.13 fL
  MONOCYTE: 2.17%
  NEUTROPHIL: 10.17%
  PLATELET COUNT: 1377.33 x10E3/uL
[6]
  ALANINE AMINOTRANSFERASE: 41.33 u/L
  ALBUMIN: 3.57 G/DL
  ALKALINE PHOSPHATASE: 337.33 u/L
  ASPARTATE AMINOTRANSFERASE: 68.33 u/L
  BLOOD UREA NITROGEN: 13 mg/dL
  CHLORIDE: 103.33 MEQ/L
  CHOLESTEROL: 100 mg/dL
  CREATINE PHOSPHOKINASE: 163.67 u/L
  CREATININE: 0.4 mg/dL
  GLUCOSE: 179 mg/dL
  PHOSPHORUS: 12.8 mg/dL
  POTASSIUM: 6.93 MEQ/L
  SODIUM: 148.33 MEQ/L
  TOTAL BILIRUBIN: 0.4 mg/dL
  TOTAL PROTEIN: 5.97 G/DL
[7]
  BASOPHIL: 0.37%
  EOSINOPHIL: 0.43%
  ERYTHROCYTE COUNT: 7.05 x10E6/uL
  HEMATOCRIT: 42.83%
  HEMOGLOBIN: 13.57 G/DL
  LEUKOCYTE COUNT: 14.17 x10E3/uL
  LYMPHOCYTE: 88.67%
  MEAN CORPUSCULAR HEMOGLOBIN: 19.27 pg
  MEAN CORPUSCULAR HEMOGLOBIN CONCENTRATION: 31.67 G/DL
  MEAN CORPUSCULAR VOLUME: 60.87 fL
  MONOCYTE: 1.77%
  NEUTROPHIL: 7.87%
  PLATELET COUNT: 1364.33 x10E3/uL
[8]
  ALANINE AMINOTRANSFERASE: 42.67 u/L
  ALBUMIN: 3.6 G/DL
  ALKALINE PHOSPHATASE: 295 u/L
  ASPARTATE AMINOTRANSFERASE: 69.33 u/L
  BLOOD UREA NITROGEN: 14 mg/dL
  CHLORIDE: 104 MEQ/L
  CHOLESTEROL: 99 mg/dL
  CREATINE PHOSPHOKINASE: 224.33 u/L
  CREATININE: 0.47 mg/dL
  GLUCOSE: 169 mg/dL
  PHOSPHORUS: 12.43 mg/dL
  POTASSIUM: 6.6 MEQ/L
  SODIUM: 147 MEQ/L
  TOTAL BILIRUBIN: 0.57 mg/dL
  TOTAL PROTEIN: 6 G/DL
[9]
  BASOPHIL: 0.4%
  EOSINOPHIL: 0.7%
  ERYTHROCYTE COUNT: 7.11 x10E6/uL
  HEMATOCRIT: 44.17%
  HEMOGLOBIN: 13.9 G/DL
  LEUKOCYTE COUNT: 12.26 x10E3/uL
  LYMPHOCYTE: 82.2%
  MEAN CORPUSCULAR HEMOGLOBIN: 19.53 pg
  MEAN CORPUSCULAR HEMOGLOBIN CONCENTRATION: 31.47 G/DL
  MEAN CORPUSCULAR VOLUME: 62.13 fL
  MONOCYTE: 2.5%
  NEUTROPHIL: 13.1%
  PLATELET COUNT: 1171.33 x10E3/uL
[10]
  ALANINE AMINOTRANSFERASE: 37 u/L
  ALBUMIN: 3.53 G/DL
  ALKALINE PHOSPHATASE: 263.67 u/L
  ASPARTATE AMINOTRANSFERASE: 61.67 u/L
  BLOOD UREA NITROGEN: 11.67 mg/dL
  CHLORIDE: 103.33 MEQ/L
  CHOLESTEROL: 122.33 mg/dL
  CREATINE PHOSPHOKINASE: 219.67 u/L
  CREATININE: 0.4 mg/dL
  GLUCOSE: 175.67 mg/dL
  PHOSPHORUS: 13.27 mg/dL
  POTASSIUM: 7 MEQ/L
  SODIUM: 145.33 MEQ/L
  TOTAL BILIRUBIN: 0.47 mg/dL
  TOTAL PROTEIN: 5.9 G/DL
[11]
  BASOPHIL: 0.43%
  EOSINOPHIL: 0.17%
  ERYTHROCYTE COUNT: 6.8 x10E6/uL
  HEMATOCRIT: 42.73%
  HEMOGLOBIN: 13.33 G/DL
  LEUKOCYTE COUNT: 11.39 x10E3/uL
  LYMPHOCYTE: 85.5%
  MEAN CORPUSCULAR HEMOGLOBIN: 19.63 pg
  MEAN CORPUSCULAR HEMOGLOBIN CONCENTRATION: 31.3 G/DL
  MEAN CORPUSCULAR VOLUME: 62.77 fL
  MONOCYTE: 1.77%
  NEUTROPHIL: 11.33%
  PLATELET COUNT: 1352 x10E3/uL
[12]
  ALANINE AMINOTRANSFERASE: 37.67 u/L
  ALBUMIN: 3.6 G/DL
  ALKALINE PHOSPHATASE: 289 u/L
  ASPARTATE AMINOTRANSFERASE: 66.67 u/L
  BLOOD UREA NITROGEN: 12.67 mg/dL
  CHLORIDE: 102.33 MEQ/L
  CHOLESTEROL: 101.33 mg/dL
  CREATINE PHOSPHOKINASE: 145 u/L
  CREATININE: 0.33 mg/dL
  GLUCOSE: 186 mg/dL
  PHOSPHORUS: 13.3 mg/dL
  POTASSIUM: 6.73 MEQ/L
  SODIUM: 147.67 MEQ/L
  TOTAL BILIRUBIN: 0.27 mg/dL
  TOTAL PROTEIN: 6.1 G/DL
